Source: patent publication US20030143670A1, “DNA encoding SNORF44 receptor” (priority 1999, published 2003)
Entries after “also recorded” stand apart in the source; their conditions may differ. Where no end group is shown, it is not given here.

Key:
[1] = system: human SNORF44; assay: Calcium-activated Cl- currents in Xenopus laevis oocytes (voltage clamp); format: cell-based; details: control (uninjected) oocytes not expressing hSNORF44
Procedure: (§1) Oocytes were harvested from Xenopus laevis and injected with mRNA transcripts as previously described (Quick and Lester, 1994; Smith et al.,1997). Synthetic, full-length RNA transcripts for human SNORF44 were produced by digestion of the plasmid BN16 with HINDIII followed by transcription with T7 RNA Polymerase (“Message Machine”, Ambion). Oocytes were injected with 15 ng hSN44 receptors synthetic RNA and incubated for 3-4 days at 17 degrees. Dual electrode voltage clamp (Axon Instruments Inc.) was performed using 3 M KCl-filled glass microelectrodes having resistances of 1-2 Mohm. Unless otherwise specified, oocytes were voltage clamped at a holding potential of −80 mV. During recordings, oocytes were bathed in continuously flowing (1-3 ml/min) medium containing 96 mM NaCl, 2 mM KCl, 1.8 mM CaCl2, 1 mM MgCl2, and 5 mM HEPES, pH 7.5 (ND96 Buffer). Drugs were applied by local perfusion from a […] glass capillary tube fixed at a distance of 0.5 mm from the oocyte.
(§2) Heterologous expression of GPCRs in Xenopus oocytes has been widely used to determine the identity of signaling pathways activated by agonist stimulation (Gundersen et al., 1983; Takahashi et al., 1987). Activation of the phospholipase C (PLC) pathway is assayed by applying test compound in ND96 solution to oocytes previously injected with mRNA for the mammalian receptor and observing inward currents at a holding potential of −80 mV. The appearance of currents that reverse at −25 mV and display other properties of the Ca^++-activated Cl^− (chloride) channel is indicative of mammalian receptor-activation of PLC and release of IP3 and intracellular Ca^++.

[2] = target: T1, hSNORF44 (Homo sapiens, UniProt Q96P65); assay: as above; format: cell-based; design: Synthetic, full-length RNA transcripts for human SNORF44 were produced by digestion of the plasmid BN16; expressed in transfected cells; host or cells: Xenopus laevis oocytes injected with synthetic RNA; details: oocytes injected with SNORF44 mRNA; 10 μM peptide; holding potential -80 mV
T1 sequence (Q96P65 1-431): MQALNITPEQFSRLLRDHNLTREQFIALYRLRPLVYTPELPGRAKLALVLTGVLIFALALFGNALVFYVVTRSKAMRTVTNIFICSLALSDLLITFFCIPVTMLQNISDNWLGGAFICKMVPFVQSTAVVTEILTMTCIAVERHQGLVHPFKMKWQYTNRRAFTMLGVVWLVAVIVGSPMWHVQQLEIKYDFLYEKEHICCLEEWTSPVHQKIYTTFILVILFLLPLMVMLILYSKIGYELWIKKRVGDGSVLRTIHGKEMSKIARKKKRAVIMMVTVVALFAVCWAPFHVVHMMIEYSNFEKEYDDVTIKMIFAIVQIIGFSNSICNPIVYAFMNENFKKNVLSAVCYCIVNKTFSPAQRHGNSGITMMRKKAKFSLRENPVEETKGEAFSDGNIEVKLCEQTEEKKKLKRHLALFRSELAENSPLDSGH
Procedure: as §1, §2

[3] = target: T1, hSNORF44; assay: Intracellular Ca2+ release (FLIPR) in transiently transfected COS-7 cells; format: cell-based; design: The entire coding region was then amplified by PCR from human spinal cord cDNA and subcloned into pcDNA3.1(−) for expression and functional analyses; expressed in transfected cells; host or cells: COS-7; details: COS-7 cells transfected with SNORF44
Procedure: (§3) A typical protocol for the DEAE-dextran method as applied to COS-7 and HEK293 cells is described as follows. Cells to be used for transfection are split 24 hours prior to the transfection to provide flasks which are 70-80% confluent at the time of transfection. Briefly, 8 μg of receptor DNA plus 8 μg of any additional DNA needed (e.g. Gα protein expression vector, reporter construct, antibiotic resistance marker, mock vector, etc.) are added to 9 ml of complete DMEM plus DEAE-dextran mixture (10 mg/ml in PBS). Cells plated into a T225 flask (sub-confluent) are washed once with PBS and the DNA mixture is added to each flask. The cells are allowed to incubate for 30 minutes at 37° C., 5% CO2. Following the incubation, 36 ml of complete DMEM with 80 μM chloroquine is added to each flask and allowed to incubate an additional 3 hours. The medium is then aspirated and 24 ml of complete medium containing 10% DMSO for exactly 2 minutes and then aspirated. The cells are then washed 2 times with PBS and 30 ml of complete DMEM added to each flask. The cells are then allowed to incubate over night. The next day the cells are harvested by trypsinization and reseeded into 96 well plates.
Cells expressing the receptor of interest are plated into clear, flat-bottom, black-walled 96-well plates (Costar) at a density of 80,000-150,000 cells per well and allowed to incubate for 48 hr at 5% CO2, 37° C. The growth medium is aspirated and 100 μL of loading medium containing Fluo-3 dye is added to each well. […]
(§4) The compounds of interest are diluted in wash buffer (Hank's BSS (without phenol red), 20 mM HEPES, 2.5 mM probenecid) to a 4× final concentration and aliquoted into a clear v-bottom plate (Nunc). […] Compounds are added to the cell plates and responses are measured using the FLIPR™ instrument. The data are then collected and analyzed using the FLIPR™ software and Graphpad Prism. […]

[4] = target: T1, hSNORF44; assay: Inositol phosphate (IP) release in transfected COS-7 cells; format: cell-based; design: The entire coding region was then amplified by PCR from human spinal cord cDNA and subcloned into pcDNA3.1(−) for expression and functional analyses; expressed in transfected cells; host or cells: COS-7; details: hSNORF44-transfected COS-7 cells
Procedure: as §3, with “The medium is then aspirated and 24 ml of complete medium containing 10% DMSO for exactly 2 minutes and then aspirated. The cells are then washed 2 times with PBS and 30 ml of complete DMEM added to each flask. The cells are then allowed to incubate over night. The next day the cells are harvested by trypsinization and reseeded into 96 well plates.” left out
Human SNORF44 receptor-mediated activation of the inositol phosphate (IP) second messenger pathways were assessed by radiometric measurement of IP products.
For example, in a 96 well microplate format assay, COS-7 cells expressing the receptor of interest were plated at a density of 70,000 cells per well and allowed to incubate for 24 hours. […] 200 μL of scintillation cocktail was added to each well, and the radioactivity was determined by liquid scintillation counting.

[5] = system: hSNORF44; assay: Intracellular Ca2+ release (FLIPR) in transiently transfected COS-7 cells; format: cell-based, human; details: vector-transfected cells (so in the source); data not shown
Procedure: as §3, with “The cells are then washed 2 times with PBS and 30 ml of complete DMEM added to each flask. The cells are then allowed to incubate over night. The next day the cells are harvested by trypsinization and reseeded into 96 well plates.” left out
as §4

[6] = target: MC3 (Homo sapiens, UniProt P41968); details: Schioth et al., 1996; cited from earlier work
MC3, sequence (P41968 whole entry): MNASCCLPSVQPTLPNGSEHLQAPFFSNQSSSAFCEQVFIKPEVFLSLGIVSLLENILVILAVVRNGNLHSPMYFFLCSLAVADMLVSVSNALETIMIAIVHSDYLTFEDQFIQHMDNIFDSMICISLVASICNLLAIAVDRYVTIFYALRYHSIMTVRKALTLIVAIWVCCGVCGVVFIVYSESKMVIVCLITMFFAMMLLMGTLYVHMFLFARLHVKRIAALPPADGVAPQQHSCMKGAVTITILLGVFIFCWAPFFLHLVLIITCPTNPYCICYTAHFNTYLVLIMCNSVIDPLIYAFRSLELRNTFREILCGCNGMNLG

[7] = target: T2, human SNORF44 receptor (human, UniProt Q96P65 1-431); assay: cell-based or functional assay
T2 sequence: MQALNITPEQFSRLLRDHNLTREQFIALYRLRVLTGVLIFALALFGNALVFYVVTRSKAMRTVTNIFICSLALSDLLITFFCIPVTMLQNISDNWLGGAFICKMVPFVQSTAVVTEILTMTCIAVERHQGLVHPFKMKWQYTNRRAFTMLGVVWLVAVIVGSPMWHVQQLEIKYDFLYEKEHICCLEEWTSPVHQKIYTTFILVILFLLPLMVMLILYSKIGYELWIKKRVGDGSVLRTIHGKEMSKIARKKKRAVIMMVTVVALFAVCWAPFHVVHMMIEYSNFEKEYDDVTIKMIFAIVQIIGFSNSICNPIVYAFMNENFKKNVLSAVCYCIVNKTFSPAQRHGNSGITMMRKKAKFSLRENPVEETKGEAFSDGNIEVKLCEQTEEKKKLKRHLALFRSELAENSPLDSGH

In the case of H-MGHFRF-NH2 [Peptide 2, MGHFRF-NH2], the “response in control oocytes” value [1] is reported as “not in control oocytes”, the “current amplitude (Ca2+-dependent Cl- current)” value (“current amplitude” below) [2] is reported as 241±65 nA and the “release of intracellular Ca2+ as measured by FLIPR” value (shortened to “release of intracellular Ca2+”) [3] is reported as “stimulated release of intracellular Ca^2+”.

With H-YGGHFRW-NH2 [Peptide 3, YGGHFRW-NH2] the “response in control oocytes” value [1] was “not in control oocytes”, the “current amplitude” value [2] was 250±46 nA and the “release of intracellular Ca2+” value [3] was “stimulated release of intracellular Ca^2+”.

For H-YSMEHFRW-NH2 [Peptide 1], the “response in control oocytes” value [1] was “no response; also recorded: does not respond”, the “current amplitude” value [2] was 1036±306 nA and the “release of intracellular Ca2+” value [3] was “concentration-dependent release of intracellular Ca^2+”. For the same molecule, the “release of IP second messengers, fold above basal” value [4] was “approximately 10 fold”.

In the case of “NPFF (FLFQPQRF; ends and bridges not checked; UniProt O15130 69-76, looked up) [reference compound]”, the “effect on intracellular Ca2+ release” value [5] is reported as “neither NPFF nor NPY (ligands activating the most closely related GPCRs) had any significant effect”.

With NPY [reference compound] the “effect on intracellular Ca2+ release” value [5] was “neither NPFF nor NPY (ligands activating the most closely related GPCRs) had any significant effect”.

For gamma melanocortin [γ-MSH], the “agonist activity at recombinant MC3 receptor” value [6] is given as “agonist”.

With YSMEHFRW-NH2 [Peptide 1] the “EC50, release of IP second messengers, COS-7 cells” value (“EC50, release” for short) [7] was 1210 nM and the “release of IP second messengers, fold above basal, COS-7 cells” value [7] was roughly 10 fold.

In the case of MGHFRF-NH2 [Peptide 2], the “EC50, release” value [7] is reported as 294 nM.

With YGGHFRW-NH2 [Peptide 3] the “EC50, release” value [7] was 328 nM.
